According to the METLIN SMRT retention time set (Domingo-Almenara et al. 2019):

Assay: gradient 5% acetonitrile 3 min, to 50% in 2 min, to 85% in 15 min, held 3 min, 100 µL/min
Details: column: Zorbax Extend-C18 2.1 x 50 mm; eluents: water / acetonitrile, 0.1% formic acid
How it was run: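 Each retention time is based on an adduct peak selected computationally and verified by manual inspection. Measurements used HPLC–quadrupole time-of-flight mass spectrometry in positive and negative ionization mode on mixtures of ~100 pure standards. Chromatography ran on a Zorbax Extend-C18 column (2.1 × 50 mm, 1.8 μm) at 100 μL/min with water and acetonitrile, each containing 0.1% formic acid, and dead and dwell volumes of 40 μL and 900 μL.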

RP-LC retention time [s] | SMILES
727 | CCOC(=O)c1csc(NC(=O)Cn2nc3c(cc2=O)CCCC3)n1
978 | O=C(Nc1nc(-c2cccc3ccccc23)cs1)C1CCCO1 (centres undefined)
605 | CCNC(=O)N1CCC(c2noc(-c3cccnc3)n2)C1 (centres undefined)
710 | CSc1nnc(-c2nn(C)c3c2CN(C(=O)c2ccccc2Cl)CC3)n1C
588 | COCCC1(NS(C)(=O)=O)CCN(C(=O)NC(C)C)CC1
1020 | Cc1ccccc1-c1noc(C2CCCN2C(=O)Nc2ccccc2F)n1 (centres undefined)
667 | NC(=O)c1ccccc1NC(=O)NC1CC(=O)N(c2ccc(Cl)cc2)C1 (centres undefined)
730 | COCCN1CCn2cc(S(=O)(=O)Nc3ccc(C)cc3C)cc2C1=O
774 | COc1ccc(NC(=O)N2CCC(CC(=O)N3CCCCC3)CC2)cc1Cl
1020 | Cc1nc2cc(-c3noc(CNC(=O)Cc4ccc(Cl)cc4)n3)ccc2n(C2CCCC2)c1=O
850 | COc1cccc(CNC(=O)c2nc3cccnc3n(CC(C)C)c2=O)c1
594 | Cc1noc(C)c1CC(=O)N1CC(c2noc(C3CCCN3C)n2)C1 (centres undefined)
1180 | O=C(Cc1ccc2c(c1)OCO2)N(CC1CCCO1)c1nc2c(F)cc(F)cc2s1 (centres undefined)
736 | O=C(c1cn2c(n1)CSCC2)N(Cc1ccccc1)Cc1ccco1
614 | COc1cccc(C(O)CN2CCN(c3cccc(C)c3C)CC2)c1 (centres undefined)
754 | CN(CC(=O)NC1CCCC1)S(=O)(=O)c1ccc2nc(-c3ccccc3)[nH]c2c1
851 | COCCc1noc(C2Cc3ccccc3N2C(=O)Nc2ccc(OC)c(OC)c2)n1 (centres undefined)
723 | COc1cc(NC(=O)N2CCN(c3ccc(=O)n(-c4ccc(F)cc4)n3)CC2)cc(OC)c1OC
1130 | CCn1ccc2oc(C)c(C(=O)NCc3ccc(C(C)C)cc3)c2c1=O

The remaining lines, values behind:

SMILES | RP-LC retention time [s]
COc1cccc(NC(=O)Cn2c(=O)cc(-c3nc(C(C)C)no3)c3ccccc32)c1 | 982
COc1ccc(CC(=O)Nc2nnc(SCc3nnc(-c4ccccc4C)o3)s2)cc1 | 923
Fc1ccc(-c2noc(Cc3nc(-c4cccc(Cl)c4)cs3)n2)cc1 | 1350
COc1ccc(NC(=O)N2CCC(n3cnc4ccc(Cl)cc4c3=O)CC2)cc1 | 802
Cc1ccc(-c2ccc(=O)n(Cc3nc(-c4ccc(OC(C)C)cc4)no3)n2)cc1 | 597
CCCNC(=O)Cn1c(C)nc2ccccc21 | 571
Cc1cc2cc(CNC(=O)NC3CC(=O)N(c4ccccc4)C3)ccc2[nH]1 (centres undefined) | 668
COc1cc([C@@H]2c3cc4c(cc3[C@H](O)[C@@H](CO)[C@@H]2C(=O)NCC2CC2)OCO4)cc(OC)c1OC | 666
COCCNC(=O)C1CCCN(C(=O)Nc2ccc(NC(=O)Nc3ccccc3)cc2)C1 (centres undefined) | 676
O=C(c1cn(-c2cc(-c3nc(C4CC4)no3)ccn2)cn1)N1CCCCCC1 | 883
CCc1nnc(-c2cc(C)n(CC(=O)Nc3ccc(Cl)cc3C)c2C)o1 | 915
Cc1nn(-c2ccc(-c3ccccc3)nn2)c(C)c1S(=O)(=O)N1CCOCC1 | 887
O=C(Nc1ccc2c(c1)OCCO2)C1CCCN(c2cnc3nccnc3c2)C1 (centres undefined) | 689
Cc1nc(-c2ccc3c(c2)CCN3C(=O)Cc2c[nH]c3ccccc23)cs1 | 950
Cc1cc(OCC(=O)N[C@H](C(=O)O)c2ccccc2)c2c3c(c(=O)oc2c1)CCCC3 | 879
CCn1c(=O)sc2cc(S(=O)(=O)N3CCC(C(=O)NC4CC4)CC3)ccc21 | 737
Cc1ccc(-c2cc3c4nn(CC(=O)NC5CCCCC5)c(=O)n4ccn3n2)cc1C | 980
O=C(Nc1ccc2c(c1)OCCO2)N1C[C@@H]2C[C@H]1C[C@@H]2NS(=O)(=O)c1ccccc1 | 678
CCn1c(N2CCCC(C(=O)NCc3ccc(SC)cc3)C2)cc(=O)n(C)c1=O (centres undefined) | 809
O=C(NCc1ccc(F)cc1F)C1CCN(c2ncnc3c2oc2ccccc23)CC1 | 761
CCCc1cc(C2CCCN2C(=O)c2ccc(OC)c(OC)c2)no1 (centres undefined) | 793
O=C(NCCc1csc(-c2cccs2)n1)C1CCN(C(=O)CCC2CCCC2)CC1 | 901
COc1cccc(NC(=O)N2CCc3nc(-c4ccccc4)ncc3C2)c1 | 884
COC(=O)CNC(=O)N1CCc2cc(-c3ccc(C(=O)N4CCOCC4)cc3)ccc21 | 635
Cc1nc(CCNC(=O)C2CCN(S(=O)(=O)c3ccc(C4CCCCC4)cc3)CC2)cs1 | 981
